This note sets out measurements from patent US20220362182A1, “METHODS FOR REVERSING HEPATIC STEATOSIS” (BRIGHTSEED, INC., priority 2020, published 2022).

The format of series [1] is in vivo. To be noted: mice, 30, 60, 120 and 240 mg/kg bid for 3 days, IP. How it is done:
For dose response experiments, mice were injected intraperitoneally with 10% DMSO as vehicle control or 4 different doses of NCT (30, 60, 120 and 240 mg/kg of body weight) dissolved in 10% DMSO. Mice received 2 doses per day with a 5 h interval between injections for 3 days. To test the effect of NCT (Sundia MediTech Company, Ltd., Custom synthesis), 200 mg/kg was injected IP bid for 14 days. On day 15, mice received a final dose of NCT followed by IP injection with 3 g/kg dextrose. One h later, blood samples were collected and mice were euthanized using pentobarbital. Total mouse, liver and epididymal fat pad weights were measured. Dissected liver samples were washed in cold PBS, cut into small pieces and distributed for analyses. For RNA isolation and ELISA, liver samples were snap frozen using liquid nitrogen and stored at −80° C. For histomorphometry and immunofluorescence analysis, liver samples were fixed in 4% of cold PFA and processed for histology. All animal experiments were approved by the Institutional Animal Care and Use Committee (IACUC) of the Sanford Burnham Prebys Medical Discovery Institute in accordance with national regulations.
Having established that NCT reduces the level of stored fat in cells in vitro, it was of interest to determine its effect in vivo. […]

The test system of series [2] is CYP26A1 mRNA. Description: CYP26A1 mRNA in T6PNE cells. To be noted: 2 days, 0.25 mM palmitate, NCT 10 μM, 4-OH-RA 20 μM. Type of series: cell-based, human. How it is done:
(§1) Quantitative PCR (Q-PCR) from in vitro cell culture experiments used total RNA purified using RNeasy Kits (Qiagen). For liver tissue samples, total RNA was isolated using Trizol (Invitrogen) and prepared for RNAseq (mouse liver DMSO and NCT, N=3). cDNA was amplified using 3 μg of total RNA using qScript cDNA SuperMix (Quanta BioSciences, Beverly, Mass., USA). QPCR analysis was performed using SYBR® Select Master Mix (Applied Biosystems) and ABI 7900HT (Applied Biosystems, Thermo Fisher Scientific). The Ct values of mRNA expression were then normalized to the 18 s rRNA values and are expressed as fold change over samples from mice fed normal chow for in vivo experiments or DMSO controls for cell culture experiments.

Series [3] deals with CYP26A1 mRNA. Description: hepatic CYP26A1 mRNA in DIO mice. Type of series: in vivo. To be noted: mouse liver. The procedure:
as §1
For dose response experiments, mice were injected intraperitoneally with 10% DMSO as vehicle control or 4 different doses of NCT (30, 60, 120 and 240 mg/kg of body weight) dissolved in 10% DMSO. Mice received 2 doses per day with a 5 h interval between injections for 3 days. To test the effect of NCT (Sundia MediTech Company, Ltd., Custom synthesis), 200 mg/kg was injected IP bid for 14 days. On day 15, mice received a final dose of NCT followed by IP injection with 3 g/kg dextrose. One h later, blood samples were collected and mice were euthanized using pentobarbital. Total mouse, liver and epididymal fat pad weights were measured. […]

For a further series, the system named is T6PNE cells. Briefly: fat clearance assay in palmitate-treated T6PNE cells (Oil Red O, Nile Red, triglyceride). Type of series: cell-based, human. To be noted: 0.25 mM palmitate for 2 days; for cellular triglyceride (TG) level: 10 μM. How it is done: Oil red O and Nile Red staining were used to measure lipid accumulation. Oil Red O staining was done as known in the art. Briefly, fixed cells were incubated with Oil Red O solution (Poly Scientific) for 3 h, followed by photomicrography (Olympus, IX71). For Nile Red staining, dye (1: 500 in PBS from 1 mg/ml in ethanol stock, Sigma) was added for 30 mins and DAPI added for 10 mins at room temperature. Quantification of Nile Red staining was done with a Celigo imaging cytometer (Nexcelom Bioscience). More than 4000 cells were analyzed for each quantification. The number of Nile Redpositive cells was normalized to the DAPI-positive cell number for each well and fold change was calculated relative to a DMSO control well.
Palmitate (150 mM) (Sigma-Aldrich) was prepared in 50% ethanol and precomplexed with 15% fatty acid-free BSA (Research Organics, Cleveland, Ohio, USA) in a 37 C water shaker. BSA-precomplexed palmitate was used as a 12 mM stock solution for all assays with a final concentration of 0.25 mM palmitate in cell culture medium.
siRNAs were purchased from Ambion. For transfections, 24 μL of each siRNA (1 μM stock) was mixed with 90 μL of a 1:100 dilution of Lipofectamine RNAi MAX (Invitrogen, Waltham, Mass., USA) in Opti-MEM. Transfection was done in 24 well plates (Thermo Fisher Scientific, Waltham, Mass., USA), by incubation with cells for 30 min. at room temperature. One day after transfection, cells were transferred to 96 well plates (2000 cells per well) and incubated at 37° C. for an additional day. Forty-eight hours after transfection, either palmitate-BSA complex or BSA control plus or minus compounds was added for 2 days. For validation of siRNAs, transfected cells were harvested for RNA purification and QPCR for each gene 2 days after transfection.
The bicinchoninic acid (BCA) protein assay kit assay (Thermo scientific) was used to measure protein amount for DART, Western blotting and TG assays. Absorbance at 550 nm was determined using a plate reader.

Entries after “also recorded” stand apart in the source; their conditions may differ.

Turning to `O=C(/C=C/c1ccc(O)c(O)c1)NCCc1ccc(O)cc1` [NCT, N-trans-caffeoyltyramine], the tolerability result in series [1] is listed as “well tolerated”. Besides, the “CYP26A1 mRNA level” value with CYP26A1 mRNA [2] is on record as “induced CYP26a1”. Moreover, the “hepatic CYP26A1 mRNA” value with CYP26A1 mRNA [3] was “induced CYP26a1”. In addition, in the series on T6PNE cells, the “fat clearance (stored fat by Oil Red O and Nile Red staining)” value was “less stored fat than control cells; also recorded: induced fat clearance from palmitate-loaded cells”; the “cellular triglyceride (TG) level” value is “produced the same result as the Nile Red staining”.

For `COc1cc(/C=C/C(=O)NCCc2ccc(O)cc2)ccc1O` [NFT, N-trans feruloyltyramine], in the series on T6PNE cells, the “fat clearance (stored fat by Oil Red O and Nile Red staining)” value was “less stored fat than control cells; also recorded: induced fat clearance from palmitate-loaded cells”; the “cellular triglyceride (TG) level” value is “produced the same result as the Nile Red staining”.
